This note sets out measurements from US8557812B2, “Small molecule inhibitors of anti-apoptotic BCL-2 family members and the uses thereof” (The Regents of the University of Michigan, priority 2004, dated 2013).

Data set [1] concerns PC-3 xenograft. Conditions: for Complete tumor regression: tumors regressed/total.
Description: The tumor sizes were measured 2 times a week and calculated as: Tumor Volume=(A×B^2)/2 where A and B are the tumor length and width (in mm), respectively.
A short description of data set [2]: Body weight of xenograft mice (Example 9). Format: in vivo. Conditions: doses as in Example 9. As for the experimental part:
To monitor toxicity, animal body weights were measured and plotted in FIG. 10.

The target of data set [3] is Bcl-2 (Homo sapiens, UniProt P10415). Put plainly: Fluorescence polarization in vitro Bcl-2 binding assay. Here is the method:
Bcl-2 used in this assay is a recombinant His-fused soluble protein. […] Inc., Research Triangle Park, N.C.). […] The unlabeled Bid peptide is used as the positive control. The Ki values were calculated using our developed equation for FP assay (Nikolovska-Coleska et al., Anal. Biochem., 2004, in press). The program for calculating a Ki value is available free of charge via the Internet at http://sw16.im.med.umich.edu/software/calc_ki/.
A general note: In fluorescence polarisation assays a small probe gives low polarisation when free and higher when bound to something large.

Data set [4] has as its target human Bcl-xL (Homo sapiens, UniProt Q07817). In words: Fluorescence polarization in vitro Bcl-xL binding assay. The note with it: displacement of Flu-Bak peptide. The text has this: For determination of the binding affinity to Bcl-xL protein a human Bcl-xL recombinant His-tagged protein without the C-terminus hydrophobic tail and the Bak-16mer BH3 peptide labeled with 6-carboxyfluorescein succinimidyl ester (FAM) were used.

Data set [5] has as its system MDA-MB-231 (2LMP) cells. Put plainly: Cell growth of MDA-MB-231 (2LMP) cells (WST). Format: cell-based. The note with it: Homo sapiens, read-out: IC50 of cell growth inhibition.
Data set [6] relates to PC-3 cells. In words: Apoptosis by Annexin V-FITC staining and flow cytometry. The note with it: 2.5 μM, 45 hours. Type of data set: cell-based, human. (In general: Flow cytometry measures light scatter and fluorescence of single cells or particles in a stream.)
Data set [7] concerns LnCap, PC-3, DU145c, 2LMP and MCF-10A cell lines. In words: Inhibition of cell growth in human cancer cell lines (MTT). Type of data set: cell-based. Conditions: 120 h, each of LnCap, 5 days. Here is the method: The cells were then incubated at 37° C. with 5% CO2 for 5 days, followed by detection of cell viability with MTT. Untreated cells were used as 100% growth.
Data set [8] in a line: in vivo. The note with it: female, Balb/c, mouse, iv.
Data set [9] deals with MDA-231 cells. Put plainly: Cell survival with CDDP and TW-37 alone or in combination. Type of data set: cell-based, human. The text has this:
CDDP is a DNA damaging agent and can effectively induce apoptosis in MDA-231 breasted cancer cells and is also a clinically used chemotherapeutic drug for cancer.

For data set [10], the system named is PC-3 tumor. Put plainly: PC-3 xenograft tumor growth, single agents (Example 8). Type of data set: in vivo, NCr-nu male nude mice. As for the experimental part: TAXOTERE (TXT) and cisplatin (CDDP) were used as positive controls. For the PC-3 tumor model, 5×10^6 PC-3 cells were injected into the flanks of NCr-nu male nude mice on both sides. The quarter-MTD and half-MTD doses, i.e., 20 and 40 mg/kg, i.v. q.d.×5 for 3 weeks was tested.

Data set [11] concerns PC-3 cells. In words: Caspase-3 activation in PC-3 cells (flow cytometry). Format: cell-based, human. The note with it: 5 μM, 48 hours. Here is the method:
(§1) The cells were analyzed by flow cytometry in the red channel and the results are shown as percent of cells having active caspase-3 (FIG. 5).

Data set [12] relates to PrEC (human normal prostate epithelial cells). In words: Caspase-3 activation in PrEC cells (flow cytometry). Format: cell-based. The note with it: 48 hours. Here is the method:
as §1

Like-named read-outs stand apart in the source and are kept apart here.

Chain of human Bcl-xL (Q07817 1-209 limits assumed): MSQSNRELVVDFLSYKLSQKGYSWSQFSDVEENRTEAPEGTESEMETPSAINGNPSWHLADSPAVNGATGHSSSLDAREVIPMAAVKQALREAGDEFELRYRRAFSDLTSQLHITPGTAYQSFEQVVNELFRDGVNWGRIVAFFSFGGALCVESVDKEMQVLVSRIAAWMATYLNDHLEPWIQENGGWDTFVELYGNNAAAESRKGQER
Chain of Bcl-2 (P10415 92-205 limits assumed): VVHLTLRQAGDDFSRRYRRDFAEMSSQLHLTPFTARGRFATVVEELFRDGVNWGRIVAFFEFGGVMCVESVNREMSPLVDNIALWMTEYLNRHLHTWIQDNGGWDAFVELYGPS

Turning to `CC(=O)O[C@@]12CO[C@@H]1C[C@H](O)[C@@]1(C)C(=O)[C@H](O)C3=C(C)[C@@H](OC(=O)[C@H](O)[C@@H](NC(=O)OC(C)(C)C)c4ccccc4)C[C@@](O)([C@@H](OC(=O)c4ccccc4)[C@H]21)C3(C)C` [TAXOTERE, (2R,3S)-N-carboxy-3-phenylisoserine, N-tert-butyl ester, 13-ester with 5b-20-epoxy-12a,4,7b,10b,13a-hexahydroxytax-11-en-9-one 4-acetate 2-benzoate, trihydrate], in data set [1] (TXT 7.5 mg/kg), the “T-C (days) tumor growth delay” value is on record as 30 days, the “T/C (%) tumor growth inhibition” value is given as 55.1%, the “activity under the NCI criteria (T/C<42%)” value (“activity … (T/C<42%)” below) is reported as “is not” and the Complete tumor regression is 0/10. For the same compound, in data set [1] (TXT 11 mg/kg), the “T-C (days) tumor growth delay” value was found to be 32 days, the “T/C (%) tumor growth inhibition” value came out at 32.1%, the “activity … (T/C<42%)” value is “significantly active” and the Complete tumor regression is 0/10. Further, the “body weight during treatment” value in data set [2] is on record as “reversible body weight loss”.

Regarding `CCCCCCCCCCCc1cc(C(C)C)c(O)c(O)c1O` [TM-105], the values for the concentration for half-maximal inhibition (IC50) in [3], in data set [4] and in data set [5] were > 1000 nM, > 1000 nM and 100 to 20000 nM, respectively.

Take `CCCCCCCCCCC(=O)c1cc(C(C)C)c(O)c(O)c1O` [TM-106]: the half-inhibitory concentration (IC50) (commonly the concentration needed to halve the response being measured) is > 1000 nM in data set [3], > 1000 nM in data set [4] and 100 to 20000 nM in data set [5].

For the compound `CC(C)c1cc(CCc2ccc3ccccc3c2)c(O)c(O)c1O` [TM-107], the values for the IC50 in data set [3], in data set [4] and in [5] were > 1000 nM, > 1000 nM and 100 to 20000 nM, respectively.

With `CC(C)c1cc(C(=O)Cc2ccc3ccccc3c2)c(O)c(O)c1O` [TM-108], the IC50 was > 1000 nM in data set [3], > 1000 nM in data set [4] and 100 to 20000 nM in data set [5].

For the compound `CCCCCCCCCCCc1cc(Cc2ccccc2)c(O)c(O)c1O` [TM-121], the half-maximal inhibitory concentration (IC50) in data set [3] was ≤ 1000 nM; in [4], > 1000 nM; in data set [5], 100 to 20000 nM.

Turning to `CCCCCCCCCCC(=O)c1cc(Cc2ccccc2)c(O)c(O)c1O` [TM-122], the IC50 in [3] is ≤ 1000 nM; in data set [4] it was > 1000 nM; in [5] it was 100 to 20000 nM.

With `CCCCCCCCCCCc1cc(CC2CCCCC2)c(O)c(O)c1O` [TM-129], the IC50 was > 1000 nM in data set [3], > 1000 nM in data set [4] and 100 to 20000 nM in [5].

Regarding `Cc1ccc(Cc2ccc(Cc3cc(CCCc4ccccc4)c(O)c(O)c3O)cc2)cc1` [TM-133], the values for the IC50 in data set [4] and in data set [5] were > 1000 nM and 100 to 20000 nM, respectively.

`O=C(c1ccc(Oc2ccccc2)cc1)c1cc(Cc2ccccc2)c(O)c(O)c1O` [TM-140]: the 50% inhibitory concentration (IC50) was > 1000 nM in data set [4] and 100 to 20000 nM in data set [5].

With `Oc1c(Cc2ccccc2)cc(Cc2ccc(Oc3ccccc3)cc2)c(O)c1O` [TM-141], the IC50 in data set [4] was > 1000 nM; in data set [5] it was 100 to 20000 nM.

With `Oc1c(Cc2ccccc2)cc(Cc2ccc(-c3ccccc3)cc2)c(O)c1O` [TM-142], the half-maximal inhibitory concentration (IC50) in data set [3] is > 1000 nM; in data set [4], > 1000 nM; in data set [5], 100 to 20000 nM.

For the compound `Cc1cc(C(=O)c2cc(Cc3ccccc3)c(O)c(O)c2O)c(C(C)C)cc1Oc1ccc([N+](=O)[O-])c(C(F)(F)F)c1` [TM-149], in [5], the half-maximal inhibitory concentration (IC50) was in the range of 100 to 20000 nM.

On to `Cc1cc(Cc2cc(Cc3ccccc3)c(O)c(O)c2O)c(C(C)C)cc1Oc1ccc2ccccc2n1` [TM-150], for which the concentration for half-maximal inhibition (IC50) in data set [5] lay in the range of 100 to 20000 nM.

As to `CC(C)c1cc(Cc2cc(Cc3ccccc3)c(O)c(O)c2O)ccc1O` [TM-152], the IC50 in data set [5] lay in the range of 100 to 20000 nM.

Take `CC(C)c1cc(Cc2cc(Cc3ccccc3)c(O)c(O)c2O)ccc1Oc1ccc2ccccc2n1` [TM-153]: the IC50 in data set [5] fell in the range of 100 to 20000 nM.

In the case of `CC(C)c1cc(Cc2cc(Cc3ccccc3)c(O)c(O)c2O)ccc1Oc1ccnc2ccccc12` [TM-154], the IC50 in data set [5] lay in the range of 100 to 20000 nM.

In the case of `CC(C)c1cc(Cc2cc(Cc3ccccc3)c(O)c(O)c2O)ccc1Oc1ccc([N+](=O)[O-])cc1C(F)(F)F` [TM-155], the IC50 in data set [5] lay within 100 to 20000 nM.

`Cc1cc(Oc2ccc(Cc3cc(Cc4ccccc4)c(O)c(O)c3O)cc2C(C)C)c2ccccc2n1` [TM-156]: in data set [5], the IC50 was in the range of 100 to 20000 nM.

With `O=C(c1ccc(Oc2ccccc2)cc1)c1cc(-c2cccc3ccccc23)c(O)c(O)c1O` [TM-165], the half-maximal inhibitory concentration (IC50) in data set [4] is > 1000 nM; in data set [5], 100 to 20000 nM.

For `O=C(c1ccc(Oc2ccccc2)cc1)c1ccc(O)c(O)c1O` [TM-166], the IC50 in data set [5] is 100 to 20000 nM.

Consider `O=C(c1ccc(Oc2ccccc2)cc1)c1cc(-c2ccc3ccccc3c2)c(O)c(O)c1O` [TM-167], for which the IC50 was > 1000 nM in data set [4] and 100 to 20000 nM in data set [5].

Consider `O=C(c1ccc(Oc2ccccc2)cc1)c1cc(C(=O)c2cccc3ccccc23)c(O)c(O)c1O` [TM-168], for which, in [5], the 50% inhibitory concentration (IC50) fell in the range of 100 to 20000 nM.

Turning to `O=C(c1ccc(Oc2ccccc2)cc1)c1cc(C(=O)c2ccc3ccccc3c2)c(O)c(O)c1O` [TM-169], the half-inhibitory concentration (IC50) in [4] was > 1000 nM; in data set [5], 100 to 20000 nM.

As to `O=C(c1ccc(Oc2ccccc2)cc1)c1cc(C(=O)c2ccc(Oc3ccccc3)cc2)c(O)c(O)c1O` [TM-170], the half-inhibitory concentration (IC50) in [5] lay in the range of 100 to 20000 nM.

`O=C(c1ccc(Oc2ccccc2)cc1)c1cc(C(=O)c2ccc(-c3ccccc3)cc2)c(O)c(O)c1O` [TM-171]: the results for the half-maximal inhibitory concentration (IC50) in data set [4] and in data set [5] were ≤ 1000 nM and 100 to 20000 nM, respectively.

For the compound `CC(C)c1ccccc1Cc1cc(C(=O)Nc2ccc(S(=O)(=O)c3ccccc3C(C)(C)C)cc2)c(O)c(O)c1O` [TW-37, N-[(2-tert-Butyl-benzenesulfonyl)-phenyl]-2,3,4-trihydroxy-5-(2-isopropyl-benyl)-benzamide], the IC50 in [3] is ≤ 1000 nM. Besides, in data set [1] (TW-37 40 mg/kg), the “T-C (days) tumor growth delay” value amounted to 37 days, the “activity … (T/C<42%)” value is “significantly active” and the Complete tumor regression is 0/10. Further, the “T/C (%) tumor growth inhibition” value in [1] (TW-37 40 mg/kg i.v. q.d.5×3 weeks) was 34.5%. Besides, the “tumor growth compared to control” value in data set [1] (TW-37 40 mg/kg, p<0.001, two-way ANOVA, n=10) was “significantly inhibited tumor growth”. Further, the “body weight during treatment” value in data set [2] is on record as “no obvious body weight loss”. In addition, the apoptotic cells entry in data set [6] is given as “about 35%”. Moreover, the IC50 in data set [7] was in the range of 1000 to 5000 nM. In data set [8], the MTD at 3 weeks stood at 80 mg/kg. For the same compound, the “effect on CDDP induced cell death” value in data set [9] (0.2 μM or 0.3 μM TW-37, 42 hours) is on record as “enhanced the CDDP induced cell death”. Moreover, the “potency on tumor growth compared with TAXOTERE” value in data set [10] (40 mg/kg TW-37 vs TXT 7.5 mg/kg i.v. once a week) is reported as “as potent as TAXOTERE”. Moreover, the “inhibition of tumor growth in vivo” value in data set [10] (20 and 40 mg/kg i.v. q.d.5×3 weeks) is given as “significantly inhibiting tumor growth in vivo”. For the same compound, in data set [11], the “cells having activated caspase-3” value is given as “about 60%”. Moreover, the “effect on caspase-3 activation in normal prostate epithelial cells” value in data set [12] is given as “no effect”.

Turning to `N.N.[Cl][Pt][Cl]` [cisplatin, Cisplatin, reference compound], in data set [9] (CDDP alone, 42 hours), the half-inhibitory concentration (IC50) is ~750 nM.
